# Results published in patent publication US8828414B2, “Biocidal composition of 2,6-dimethyl-m-dioxane-4-ol acetate and methods of use” (priority 2009, dated 2014).
# Assays:
# Assay type in all cases: cell-based
# [1] = tested on: Pseudomonas aeruginosa, Enterobacter gergoviae, Pseudomonas putida, Salmonella choleraesuis, Escherichia coli, Staphylococcus aureus (mixed inoculum); experiment: Preservative efficacy of dimethoxane/BNPD in laundry detergent, repeated bacterial challenge; set-up: key to viable microorganism score (0-8 scale): 0-8 score = number of 1:10 dilutions to reach growth endpoint; conditions: day 20
# Experimental: (§1) Synergy Calculations. The reported synergy indexes are measured and calculated using the formula described below. In this approach, a synergy index of 1 indicates additivity. If the index is less than 1, synergy has occurred, while a synergy index greater than 1 indicates antagonism. Synergy index=CA/Ca+CB/Cb • Ca=minimal concentration of antimicrobial A, alone, producing a 4 log10 microbial kill • Cb=minimal concentration of antimicrobial B, alone, producing a 4 log10 microbial kill
# (§2) CA and CB=the concentrations of antimicrobials A and B, in combination, producing the required microbial kill (a 4 log10 microbial kill unless indicated otherwise in a particular Example).
# A sample of laundry detergent is treated with dimethoxane, BNPD, and combinations thereof. The samples are inoculated with four times over a four-week period with a 5×10^6 colony forming units per milliliter (CFU/mL) inoculum that includes Pseudomonas aeruginosa ATCC#9027, Enterobacter gergoviae ATCC#33028 Pseudomonas putida ATCC#49128, Salmonella choleraesuis ATCC#10708, Pseudomonas aeruginosa ATCC#10145, Pseudomonas aeruginosa ATCC#15442, Escherichia coli ATCC#11229, and Staphylococcus aureus ATCC#6538. The samples are inoculated on days 0, 2, 7, and 14 and analyzed for bacteria content on days 0, 1, 2, 3, 6, 8, 13, 15, 20, and 27. The bacteria concentrations are determined by serial dilution (1:10) until a growth endpoint is reached. The sample is scored on a 0-8 scale, based upon the number of serial dilutions required to reach the growth endpoint. For example, if a sample requires four 1:10 dilutions before bacterial growth is lost, then the sample receives a score of 4 which represents between 5×10^4 and 5×10^5 viable organisms.
# [2] = tested on: Pseudomonas aeruginosa, Enterobacter aerogenes, Escherichia coli, Klebsiella pneumoniae, Staphylococcus aureus, Salmonella choleraesuis (combined cultures); experiment: Preservative efficacy of DMX/BNPD in spinning finish emulsion, repeated bacterial challenge; conditions: ≧6 log10 microbial kill, day 27, post 4th microbial challenge
# Experimental: as §1, §2
# In this Example, the antimicrobial profiles of dimethoxane (DMX), 2-bromo-2-nitropropane-1,3-diol (BNPD) and combinations of DMX and BNPD are evaluated in a spinning finish emulsion. The spinning finish emulsion is determined to be free of microbial contamination prior to initiation of preservative efficacy evaluations. The spinning finish emulsion is prepared by adding 1 part spinning finish oil to 9 parts distilled water followed by 30 minutes of mixing.
# Experimental Setup. Tests are conducted in a 96-deep well block format using a total sample volume of 300 to 600 μl for all evaluations. […]
# [3] = tested on: Pseudomonas aeruginosa, Enterobacter aerogenes, Escherichia coli, Klebsiella pneumoniae, Staphylococcus aureus, Salmonella choleraesuis (combined cultures); experiment: Preservative efficacy of DMX/BNPD in water-based latex paint, repeated bacterial challenge; conditions: for log10 viable microorganisms recovered: day 20
# Experimental: as §1, §2
# In this Example, the antimicrobial profiles of dimethoxane (DMX), 2-bromo-2-nitropropane-1,3-diol (BNPD) and combinations of DMX and BNPD are evaluated in a commercial (interior eggshell) water-based latex paint formulation (pH 7.4). The paint formulation is determined to be free of microbial contamination prior to initiation of preservative efficacy evaluations.
# Experimental Setup. Tests are conducted in a 96-deep well block format using a total sample volume of 600 μl for all evaluations. In these samples, no more than 10% of the total volume consists of the biocide and organism solution and all non-matrix additions are normalized for all samples. Each experimental 96-well block contains biocide-treated samples and control samples which lack biocide.
# Microorganisms. Twenty-four hour tryptic soy broth cultures are combined in equal parts for formulation inoculation at a final concentration of 5×10^6 CFU/ml. Organisms are added to each sample of the 96-well block and mixed until homogenous. Additionally, bacterial challenges of the paint samples occur on days 0, 2, 7, and 14 of the 28-day test period. Organisms utilized: Pseudomonas aeruginosa (ATCC#15442), Pseudomonas aeruginosa (ATCC#10145), Enterobacter aerogenes (ATCC#13048), Escherichia coli (ATCC#11229), Klebsiella pneumoniae (ATCC#8308), Staphylococcus aureus (ATCC#6538), Salmonella choleraesuis (ATCC#10708).
# Enumeration of Viable Organisms. Sample aliquots are removed, at predetermined time points, for the enumeration of surviving microorganisms. Numerical values in the data tables listed below represent the log10 viable microorganisms recovered from individual samples at specific time points and biocide concentrations post microorganism addition. Biocide concentrations resulting in a ≧4 log10 kill of microorganisms, as compared to the preservative-free control, are deemed a significant reduction of viable organisms and are subsequently used for calculating synergy index values.
# [4] = tested on: Pseudomonas aeruginosa, Enterobacter gergoviae, Pseudomonas putida, Salmonella choleraesuis, Escherichia coli, Staphylococcus aureus (mixed inoculum); experiment: Preservative efficacy of dimethoxane/2-phenoxyethanol in laundry detergent, repeated bacterial challenge; conditions: day 27
# [5] = tested on: Pseudomonas aeruginosa, Enterobacter gergoviae, Pseudomonas putida, Salmonella choleraesuis, Escherichia coli, Staphylococcus aureus (mixed inoculum); experiment: Preservative efficacy of dimethoxane/dibromoglutaronitrile in laundry detergent, repeated bacterial challenge; conditions: day 20
# [6] = ≧4 log10 microbial kill, day 20, after four bacterial challenges, ppm active
# [7] = minimal concentration alone giving passing score (2 or less)
smiles,measurement,setting,value
"O=[N+]([O-])C(Br)(CO)CO [BNPD, 2-Bromo-2-nitropropane-1,3-diol]",BNPD alone (ppm),[1]; 4 log10 kill of bacteria,99 ppm
same,viable microorganism score (0-8 scale),[1]; BNPD 44 ppm alone,4.0
same,viable microorganism score (0-8 scale),[1]; BNPD 66 ppm alone,2.0
same,viable microorganism score (0-8 scale),[1]; BNPD 99 ppm alone,0.0
same,viable microorganism score (0-8 scale),[1]; BNPD 148 ppm alone,0.0
same,viable microorganism score (0-8 scale),[1]; BNPD 222 ppm alone,0.0
same,viable microorganism score (0-8 scale),[1]; BNPD 333 ppm alone,0.0
same,viable microorganism score (0-8 scale),[1]; BNPD 500 ppm alone,0.0
same,viable microorganism score (0-8 scale),[1]; BNPD 750 ppm alone,0.0
same,"BNPD alone (ppm), active concentration necessary for microbial kill",[2],137 ppm
same,log10 viable microorganisms recovered,[3]; BNPD 26 ppm alone,8
same,log10 viable microorganisms recovered,[3]; BNPD 40 ppm alone,8
same,log10 viable microorganisms recovered,[3]; BNPD 59 ppm alone,8
same,log10 viable microorganisms recovered,[3]; BNPD 89 ppm alone,8
same,log10 viable microorganisms recovered,[3]; BNPD 133 ppm alone,8
same,log10 viable microorganisms recovered,[3]; BNPD 200 ppm alone,8
same,log10 viable microorganisms recovered,[3]; BNPD 300 ppm alone,0
same,log10 viable microorganisms recovered,[3]; BNPD 450 ppm alone,0
same,BNPD alone (ppm),[3]; [6],300 ppm
"CC(=O)OC1CC(C)OC(C)O1 (stereo not shown) [DMX, 2,6-Dimethyl-m-dioxan-4-ol acetate]",DMX alone (ppm),[1]; 4 log10 kill of bacteria,1160 ppm
same,viable microorganism score (0-8 scale),[1]; DMX 153 ppm alone,5.0
same,viable microorganism score (0-8 scale),[1]; DMX 229 ppm alone,5.0
same,viable microorganism score (0-8 scale),[1]; DMX 344 ppm alone,5.0
same,viable microorganism score (0-8 scale),[1]; DMX 516 ppm alone,6.0
same,viable microorganism score (0-8 scale),[1]; DMX 773 ppm alone,4.0
same,viable microorganism score (0-8 scale),[1]; DMX 1160 ppm alone,0.0
same,viable microorganism score (0-8 scale),[1]; DMX 1740 ppm alone,0.0
same,viable microorganism score (0-8 scale),[1]; DMX 2610 ppm alone,0.0
same,viable microorganism score (0-8 scale),[4]; DMX 153 ppm alone,7
same,viable microorganism score (0-8 scale),[4]; DMX 229 ppm alone,6
same,viable microorganism score (0-8 scale),[4]; DMX 344 ppm alone,6
same,viable microorganism score (0-8 scale),[4]; DMX 516 ppm alone,6
same,viable microorganism score (0-8 scale),[4]; DMX 773 ppm alone,0
same,viable microorganism score (0-8 scale),[4]; DMX 1160 ppm alone,0
same,viable microorganism score (0-8 scale),[4]; DMX 1740 ppm alone,0
same,viable microorganism score (0-8 scale),[4]; DMX 2610 ppm alone,0
same,"Min alone, Dimethoxane (ppm)",[4]; [7],773 ppm
same,viable microorganism score (0-8 scale),[5]; DMX 76 ppm alone,8
same,viable microorganism score (0-8 scale),[5]; DMX 115 ppm alone,8
same,viable microorganism score (0-8 scale),[5]; DMX 172 ppm alone,8
same,viable microorganism score (0-8 scale),[5]; DMX 258 ppm alone,7
same,viable microorganism score (0-8 scale),[5]; DMX 387 ppm alone,3
same,viable microorganism score (0-8 scale),[5]; DMX 580 ppm alone,2
same,viable microorganism score (0-8 scale),[5]; DMX 870 ppm alone,2
same,viable microorganism score (0-8 scale),[5]; DMX 1305 ppm alone,0
same,"Min alone, DMX (ppm)",[5]; [7],580 ppm
same,log10 viable microorganisms recovered,[3]; DMX 102 ppm alone,8
same,log10 viable microorganisms recovered,[3]; DMX 153 ppm alone,8
same,log10 viable microorganisms recovered,[3]; DMX 229 ppm alone,8
same,log10 viable microorganisms recovered,[3]; DMX 344 ppm alone,8
same,log10 viable microorganisms recovered,[3]; DMX 516 ppm alone,8
same,log10 viable microorganisms recovered,[3]; DMX 773 ppm alone,8
same,log10 viable microorganisms recovered,[3]; DMX 1160 ppm alone,8
same,log10 viable microorganisms recovered,[3]; DMX 1740 ppm alone,0
same,DMX alone (ppm),[3]; [6],1740 ppm
"OCCOc1ccccc1 [Combination 2-PE, 2-Phenoxyethanol]",viable microorganism score (0-8 scale),[4]; 2-PE 585 ppm alone,7
same,viable microorganism score (0-8 scale),[4]; 2-PE 878 ppm alone,7
same,viable microorganism score (0-8 scale),[4]; 2-PE 1317 ppm alone,7
same,viable microorganism score (0-8 scale),[4]; 2-PE 1975 ppm alone,7
same,viable microorganism score (0-8 scale),[4]; 2-PE 2963 ppm alone,5
same,viable microorganism score (0-8 scale),[4]; 2-PE 4444 ppm alone,6
same,viable microorganism score (0-8 scale),[4]; 2-PE 6667 ppm alone,6
same,viable microorganism score (0-8 scale),[4]; 2-PE 10000 ppm alone,0
same,"Min alone, 2-PE (ppm)",[4]; [7],10000 ppm
"N#CCCC(Br)(C#N)CBr (stereo not shown) [DBGN, 2-Bromo-2-(bromomethyl)glutaronitrile]",viable microorganism score (0-8 scale),[5]; DBGN 3 ppm alone,8
same,viable microorganism score (0-8 scale),[5]; DBGN 4 ppm alone,8
same,viable microorganism score (0-8 scale),[5]; DBGN 7 ppm alone,8
same,viable microorganism score (0-8 scale),[5]; DBGN 10 ppm alone,8
same,viable microorganism score (0-8 scale),[5]; DBGN 15 ppm alone,8
same,viable microorganism score (0-8 scale),[5]; DBGN 22 ppm alone,7
same,viable microorganism score (0-8 scale),[5]; DBGN 33 ppm alone,3
same,viable microorganism score (0-8 scale),[5]; DBGN 50 ppm alone,0
same,"Min alone, DBGN (ppm)",[5]; [7],50 ppm
